Here are results for five molecules from ChEMBL document CHEMBL1201862, “PubChem BioAssay data set” (2004).

One experiment relates to Streptococcus. Kind of experiment: GAS UMAA2166 growth inhibition – luminescence, BacTiterGlo, counter-screen for streptokinase expression inhibitor project, dose response (AID 1915).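 Note: potency for reduction of bacterial viability or growth.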 Type of experiment: functional, organism-based.
The target in experiment [1] is Disintegrin and metalloproteinase domain-containing protein 17 (Homo sapiens, UniProt P78536). The experiment is described as follows: inhibition of ADAM17 substrate cleavage – biochemical, quenched FRET substrate, counter-screen for ADAM10 exosite inhibitor project, dose response (AID 743253).
The nature of experiment [2]: Luminescence Cell-Based Dose Retest to Confirm Inhibitors of Cancer Stem Cells. [Related pubchem assays (depositor defined):AID2717, AID2721]. It is filed as functional. The settings on record: Homo sapiens.
The nature of experiment [3]: Trypanosoma cruzi growth suppression in host cells – NIH3T3 host cells, beta-gal luminescence, confirmation (AID 2044).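 Note: intracellular parasites grown in NIH/3T3 mouse fibroblasts as host cells; luminescent beta-galactosidase reporter signal from transgenic T. cruzi replicating inside host cells; inhibitors lower the luminescence signal.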 It is filed as functional, cell-based.
The nature of experiment [4]: NIH3T3 cell viability loss – ATP luminescence, mouse fibroblasts, counter-screen, dose response (AID 2010).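 Note: cells exposed to compound for about 90 hours before reading.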 It is filed as functional, cell-based.
Experiment [5] deals with Streptococcus sp. 'group A'. The experiment is described as follows: Streptococcus pyogenes SK(-)GAS viability under kanamycin – luminescence, BacTiterGlo, confirmation, counter-screen for streptokinase expression inhibitor project, dose response (AID 1900). Type of experiment: functional, organism-based.
In a further experiment the target is T1, Streptokinase A (Streptococcus pyogenes serotype M1, UniProt P10520).
T1 sequence (P10520 whole entry): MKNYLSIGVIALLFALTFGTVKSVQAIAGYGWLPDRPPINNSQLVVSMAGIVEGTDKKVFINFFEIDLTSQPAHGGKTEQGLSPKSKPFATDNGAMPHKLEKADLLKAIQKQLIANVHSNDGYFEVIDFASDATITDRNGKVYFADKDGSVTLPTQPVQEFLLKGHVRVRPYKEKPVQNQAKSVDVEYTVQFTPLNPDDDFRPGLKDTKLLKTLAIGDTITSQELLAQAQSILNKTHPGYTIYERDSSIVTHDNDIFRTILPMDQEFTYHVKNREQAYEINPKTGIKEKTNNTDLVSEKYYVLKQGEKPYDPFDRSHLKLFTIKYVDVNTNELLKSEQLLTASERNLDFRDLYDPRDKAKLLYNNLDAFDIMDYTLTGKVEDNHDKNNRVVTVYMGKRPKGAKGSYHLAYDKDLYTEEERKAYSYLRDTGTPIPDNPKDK
The experiment is described as follows: viability-normalized secreted streptokinase activity reduction – plasminogen activation absorbance, OD405, dose response (AID 1914).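 Note: secreted streptokinase activity via plasminogen activation per viability signal from cell pellet.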 Type of experiment: functional, Streptococcus pyogenes M1 GAS.

Experiment [6] in a line: T. cruzi growth inhibition in host cells, dose response, cell-based, plate reader, dry powder, set 2 (AID 652275). It is filed as functional.
Experiment [7] can be described thus: mouse embryonic fibroblast toxicity – cell-based, plate reader, dry powder, set 2, cytotoxicity control, dose response (AID 652280). The settings on record: NIH3T3. Type of experiment: functional.
Experiment [8] in a line: inhibitors of non-replicating M. tuberculosis, dose response, luciferase, dry powder (AID 651620). It is filed as functional. The conditions noted are these: Mycobacterium tuberculosis.
Experiment [9] in a line: inhibitors of non-replicating M. tuberculosis, dose response, luciferase, dry powder (AID 651619). It is filed as functional. The settings on record: Mycobacterium tuberculosis.
Experiment [10] is described as follows: Late stage assay provider results from the probe development effort to identify inhibitors of the Plasmodium falciparum M18 Aspartyl Aminopeptidase (M18AAP): radiolabel-based cell-based dose response assay to identify compounds that inhibit P. falciparum growth in RBCs, Set 2.. It is filed as functional.
Experiment [11] is described as follows: cytotoxicity in MITF-independent A375 cells – cell-based, CellTiter-Glo luminescence, dry powder, set 4, counter-screen for MITF inhibitor project, dose response (AID 624364).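 Note: A375 melanoma cells are MITF independent so this is a counter screen.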 The settings on record: A-375. It is filed as functional.

Calls of active or inactive are those of the source.

Sequence of Disintegrin and metalloproteinase domain-containing protein 17 (P78536 whole entry, the tested form may be a part): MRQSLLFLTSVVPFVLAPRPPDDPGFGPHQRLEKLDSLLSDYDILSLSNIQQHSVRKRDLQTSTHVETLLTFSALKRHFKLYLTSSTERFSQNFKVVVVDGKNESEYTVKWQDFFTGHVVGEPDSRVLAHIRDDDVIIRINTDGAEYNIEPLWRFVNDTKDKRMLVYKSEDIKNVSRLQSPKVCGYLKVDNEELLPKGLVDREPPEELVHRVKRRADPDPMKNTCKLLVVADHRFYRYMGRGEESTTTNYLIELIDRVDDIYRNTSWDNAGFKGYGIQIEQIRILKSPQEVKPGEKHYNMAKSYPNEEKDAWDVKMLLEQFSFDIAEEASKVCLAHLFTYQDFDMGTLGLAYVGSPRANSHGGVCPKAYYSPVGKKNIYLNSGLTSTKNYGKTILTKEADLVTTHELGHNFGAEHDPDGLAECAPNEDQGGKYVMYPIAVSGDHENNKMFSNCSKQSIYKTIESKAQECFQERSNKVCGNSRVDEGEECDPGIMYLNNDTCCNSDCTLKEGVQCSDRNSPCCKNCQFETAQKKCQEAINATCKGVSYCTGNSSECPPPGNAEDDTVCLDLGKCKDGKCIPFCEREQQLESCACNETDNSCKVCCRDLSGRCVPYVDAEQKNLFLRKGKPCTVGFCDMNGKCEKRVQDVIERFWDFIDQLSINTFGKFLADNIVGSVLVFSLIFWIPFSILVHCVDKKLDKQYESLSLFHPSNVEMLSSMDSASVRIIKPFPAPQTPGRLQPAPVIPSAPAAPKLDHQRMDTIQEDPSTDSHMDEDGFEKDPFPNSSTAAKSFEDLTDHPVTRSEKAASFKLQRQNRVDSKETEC

As for `O=C(Nc1cccc(S(=O)(=O)Nc2ccc(Cl)cc2)c1)c1cc2c(s1)CCCC2`, the concentration giving a half-maximal response (EC50) with Streptococcus is 1.98 µM (active); in [3], 1.09 µM (active); in experiment [4], 10.9 µM (active); in [5] it was 2.51 µM (active); on Streptokinase A, 5.01 µM (active). The IC50 in experiment [1] was > 69.5 µM (inactive). Also, in [2], the AC50 was 2.28 µM (active).

Turning to `CC(C)(C)[S@@+]([O-])N1Cc2cc(C(=O)NCc3ccc4c(c3)OCO4)nc(-c3cccc(-c4ccncc4)c3)c2[C@H]1CCO`, the AC50 in experiment [6] is 341 nM (active); in experiment [7], 8.56 µM (active).

In the case of `[N-]=[N+]=NCCOCCNC(=O)c1ccc(C[S+]([O-])c2nnc(-c3ccc(Cl)cc3)o2)nc1` (stereo not drawn), the concentration for an effect of 90% (IC90) in experiment [8] and in experiment [9] was 16 µM (active) in each case.

Regarding `COc1ccc(CCNc2cncc3ccccc23)cc1OC`, the IC50 in experiment [10] is 4.5 µM (active).

On to `C=CCNC1=C(NC(=O)c2ccccc2)C(=O)c2ccccc2C1=O`, for which the AC50 in experiment [11] is > 70 µM (inactive).
